Measured values from PubChem BioAssay (NCI).
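Five concentrations, 48 hours, 96-well plates. At the TGI there is no net growth.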

Assays:
Assay in all cases: DTP human tumour cell line panel, 48 h
A498 renal = tested on: A498 renal
LOX IMVI melanoma = tested on: LOX IMVI melanoma
SF-268 CNS = tested on: SF-268 CNS
NCI-H522 lung = tested on: NCI-H522 lung
OVCAR-5 ovarian = tested on: OVCAR-5 ovarian
HCT-15 colon = tested on: HCT-15 colon
DU-145 prostate = tested on: DU-145 prostate
OVCAR-3 ovarian = tested on: OVCAR-3 ovarian
U251 CNS = tested on: U251 CNS
HS 578T breast = tested on: HS 578T breast

Row | SMILES | TGI (A498 renal) | TGI (LOX IMVI melanoma) | TGI (SF-268 CNS) | TGI (NCI-H522 lung) | TGI (OVCAR-5 ovarian) | TGI (HCT-15 colon) | TGI (DU-145 prostate) | TGI (OVCAR-3 ovarian) | TGI (U251 CNS) | TGI (HS 578T breast)
1 | CCOC(=O)c1ccc(-c2cccs2)[nH]1 | > 100 µM | > 100 µM | > 100 µM | > 100 µM | > 100 µM | > 31.6 µM | > 100 µM | > 100 µM | > 100 µM | > 100 µM
2 | CC(=O)OC1C(C)OC(OC2C[C@](O)(C(C)=O)Cc3c(O)c4c(c(O)c32)C(=O)c2ccccc2C4=O)C(F)C1OC(C)=O (stereo not given in full) | 2.87 µM | 3.65 µM | 24.6 µM | 4.29 µM | 5.45 µM | 6.34 µM | 4.59 µM | 9.9 µM | 3.65 µM | 9.89 µM
3 | COc1ccc(/[N+]([O-])=C/c2ccccc2OC(=S)S)cc1 | > 100 µM | 52.7 µM | > 100 µM | 74 µM | > 100 µM | > 100 µM | > 100 µM | > 100 µM | > 100 µM | > 100 µM
4 | CNc1nc(OC)c2c(n1)[n+](C)cn2C | > 100 µM | > 100 µM | > 100 µM | > 100 µM | > 100 µM | > 100 µM | > 100 µM | > 100 µM | > 100 µM | > 100 µM
5 | CO/C(N)=C(\C#N)N=Cc1cccs1 | > 100 µM | > 100 µM | > 100 µM | 79.6 µM | > 100 µM | > 100 µM | > 100 µM | > 100 µM | > 100 µM | > 100 µM
6 | O=C(Cn1c(-c2ccccc2)cc2ccccc21)N1CCOCC1 | > 100 µM | > 100 µM | > 100 µM | > 100 µM | > 100 µM | > 100 µM | > 100 µM | > 100 µM | > 100 µM | > 100 µM
7 | CCOC(=O)c1sc2nc(SC)nc3c2c1NCN3c1ccccc1Cl | > 100 µM | > 100 µM | > 100 µM | 52.7 µM | > 100 µM | > 100 µM | > 100 µM | > 100 µM | > 100 µM | 73.3 µM
8 | CC1=C(C(=O)OC(C)(C)C)C(c2ccc([N+](=O)[O-])cc2)C(C(=O)OC(C)(C)C)=C(C)N1 | 37.6 µM | 32.9 µM | 56.4 µM | 36.4 µM | 34.9 µM | 62.5 µM | 62.4 µM | 36.7 µM | 39.3 µM | 43.4 µM
9 | N#Cc1c(N)n(-c2nc3ccccc3s2)c(=O)c2cc([N+](=O)[O-])ccc12 | 98.1 µM | 19.7 µM | > 49.6 µM | 25.6 µM | > 79 µM | 19.4 µM | > 100 µM | 51.9 µM | > 100 µM | 36.9 µM
10 | Nc1c(/C=C/c2cc3cc(C4=NCCN4)ccc3o2)[nH]c2cc(C3=NCCN3)ccc12 | > 100 µM | > 100 µM | > 100 µM | > 100 µM | > 100 µM | > 100 µM | > 100 µM | > 100 µM | > 100 µM | > 100 µM
11 | CN1Cc2c(ccc3c2OCO3)[C@@H]2[C@H](O)Cc3cc4c(cc3[C@@H]21)OCO4 | 6.07 µM | > 47.3 µM | > 26.5 µM | 14.6 µM | > 100 µM | 6.74 µM | > 30.6 µM | > 100 µM | > 25.1 µM | > 100 µM
12 | O=C(NCc1ccc(Cl)c(Cl)c1)c1nc2ccccc2nc1NCc1ccc(Cl)c(Cl)c1 | > 100 µM | > 100 µM | > 100 µM | > 100 µM | > 100 µM | > 100 µM | > 100 µM | > 100 µM | > 100 µM | > 100 µM
13 | CO[C@@H](c1ccccc1)[C@H](O)[C@@](O)(c1ccccc1)P(=O)(OC)OC | > 100 µM | > 100 µM | > 100 µM | > 100 µM | > 100 µM | > 100 µM | > 100 µM | > 100 µM | > 100 µM | > 100 µM
14 | CC(C)=C[C@@H]1C[C@H](C)[C@H]2CC[C@H](C)[C@H]3C(=O)C(O)=C(C)C(=O)[C@]123 | > 100 µM | > 100 µM | > 100 µM | > 100 µM | > 100 µM | > 100 µM | > 100 µM | > 100 µM | > 100 µM | > 100 µM
15 | Nc1nc(Nc2cc(F)c(Cl)c(F)c2)cc(=O)[nH]1 | > 100 µM | > 100 µM | > 100 µM | > 100 µM | > 100 µM | > 100 µM | > 100 µM | > 100 µM | > 100 µM | 66.5 µM
16 | N#Cc1c2c(c(Nc3ccc(Cl)cc3)n3c1nc1ccccc13)CCCC2 | > 100 µM | > 100 µM | > 100 µM | > 100 µM | > 100 µM | > 100 µM | > 100 µM | > 100 µM | > 65.4 µM | > 87.4 µM
17 | O=C1CSC(c2cccc(Oc3ccccc3)c2)N1c1cc(Cl)ccc1Cl (stereo not given) | 70.7 µM | 43.1 µM | 39.5 µM | 41.1 µM | 76.9 µM | 58.6 µM | > 100 µM | 51.2 µM | 33.2 µM | 77.7 µM
18 | CCOC(=O)c1c(SCCN(CC)CC)n(-c2ccccc2)c(=S)n(-c2ccccc2)c1=O | 29 µM | 4.03 µM | 9.9 µM | 3.67 µM | > 57.6 µM | 7.28 µM | 3.06 µM | 3.36 µM | 29.6 µM | 28 µM
19 | CC(=O)OC/C=C/Cn1nc(Br)c(=O)[nH]c1=O | > 100 µM | > 100 µM | > 100 µM | > 100 µM | > 100 µM | > 100 µM | > 100 µM | > 100 µM | > 100 µM | > 100 µM
20 | O=C(C[N+]1(c2ccccc2)CCOCC1)c1ccccc1 | > 100 µM | > 100 µM | > 100 µM | > 100 µM | > 100 µM | > 100 µM | > 100 µM | > 100 µM | > 100 µM | > 100 µM
21 | COc1cc(CC2C(=O)OCC2Cc2ccc(OC)c(OC)c2)ccc1O (stereo not given) | > 100 µM | > 100 µM | > 100 µM | > 100 µM | > 100 µM | > 100 µM | > 100 µM | > 100 µM | > 100 µM | > 100 µM
22 | Nc1nc2c(ccc3ccccc32)[nH]1 | > 10 µM | > 10 µM | > 10 µM | > 10 µM | > 10 µM | > 10 µM | > 10 µM | > 10 µM | > 10 µM | > 10 µM
23 | COc1ccc(OC)c2c(Nc3ccc(S(=O)(=O)O)c4cc(S(=O)(=O)O)cc(S(=O)(=O)O)c34)cc(C)nc12 | > 100 µM | > 100 µM | > 100 µM | > 100 µM | > 100 µM | > 100 µM | > 100 µM | > 100 µM | > 100 µM | > 100 µM
24 | O=C(CCc1ccccc1)NCCc1ccc(O)c(O)c1 | > 100 µM | > 100 µM | > 100 µM | 44 µM | > 31.6 µM | > 100 µM | > 100 µM | > 89 µM | > 100 µM | > 100 µM
25 | CCCCSC1=N/C(=C\c2ccccc2O)C(Cl)=N1 | > 100 µM | > 100 µM | > 100 µM | > 100 µM | > 100 µM | > 100 µM | > 100 µM | > 100 µM | > 100 µM | > 100 µM
26 | O=C1Cc2c(-c3ccccc3)cc(-c3ccc(Cl)cc3)nc2-c2ccccc2N1 | 3.67 µM | 21.9 µM | 20 µM | 12.8 µM | > 83.7 µM | > 55 µM | > 90.2 µM | 22.8 µM | 10.5 µM | 11.8 µM
27 | Cc1nnc(N)s/c1=N/O | > 100 µM | > 100 µM | > 100 µM | > 100 µM | > 100 µM | > 100 µM | > 100 µM | > 100 µM | > 100 µM | > 100 µM
28 | C(/Cc1ccc2c(c1)OCO2)=N\NC1=NCCCCN1 | 91.4 µM | > 100 µM | > 100 µM | > 100 µM | > 100 µM | > 100 µM | > 100 µM | > 100 µM | > 100 µM | > 100 µM
29 | O=C1c2sccc2C(=O)c2c(CO)csc21 | 31.8 µM | 10.6 µM | 30.7 µM | 13.6 µM | > 53 µM | 11.2 µM | 9.37 µM | 6.3 µM | 23.2 µM | 33.7 µM
30 | CC(=O)Oc1c(OC(C)C)cc(=O)n2ccsc12 | > 100 µM | > 100 µM | > 100 µM | > 100 µM | > 100 µM | > 100 µM | > 100 µM | > 100 µM | > 100 µM | > 100 µM
